# Assay results: US12194039B2, “Methods of treating heart failure by administering omecamtiv mecarbil” (Cytokinetics, Inc., priority 2020, dated 2025)
# “And” between values parts separate entries of the source, which are not always exact repeats. Identical values can stand only once. “Also recorded” adds a separate entry of the source. Like-named read-outs stand apart in the source and are kept apart here.
# Tests used:
# [1] = system: patients with HFrEF by baseline NT-proBNP (no AF/F and all randomized); conditions: for 1° Outcome (time to HF hospitalization or CV death), HR / All-cause death, HR / Hospitalization for HF, HR / NT-proBNP change from baseline to 24 weeks, Ratio: OM vs placebo
# Description: Here we report the effect of omecamtiv mecarbil according to baseline NT-proBNP level in patients without AF/F and in the overall population. In addition, we describe the effect of omecamtiv mecarbil using NT-proBNP as a continuous as well as a categorical measure and describe the effect of omecamtiv mecarbil on NT-proBNP level.
# NT-proBNP was measured at baseline and at 2, 6, 24, 48 and 96 weeks after randomization. Plasma NT-proBNP was measured in a central laboratory (Q Squared Solutions) using the Roche Elecsys NT-proBNP two-site electrochemiluminescence immunoassay (analytical range 50-35000 pg/m L).
# Baseline characteristics were summarized as frequencies with percentages, means with standard deviation (SD), or medians with interquartile ranges. Differences in baseline characteristics were tested using the Cochrane-Armitage trend test for categorical variables and the analysis of variance test for continuous variables. The difference between treatment groups in NT-proBNP at the time points after randomization in surviving patients was analyzed using an analysis of covariance model, with treatment-group assignment as a fixed-effect factor and baseline NT-proBNP as a covariate. […] Time-to-event data were evaluated with Kaplan-Meier estimates and Cox proportional-hazards models with baseline hazards stratified by randomization setting and region and with treatment group and baseline eGFR as covariates. The safety analyses were performed in patients who underwent randomization and received at least one dose of omecamtiv mecarbil or placebo. […] A P-value of 0.05 was considered statistically significant.
# plasma proteins = assay: Plasma protein binding; type: in vitro ADME
# [2] = system: patients with EF≤30%, without AFF, without digoxin; type: in vivo, human
# [3] = All patients, baseline NT-proBNP >median
# [4] = All patients, baseline NT-proBNP >median, OM n = 2034
# [5] = All patients, baseline NT-proBNP ≤median
# [6] = All patients, baseline NT-proBNP ≤median, OM n = 2073
# [7] = No AF/F, baseline NT-proBNP >median
# [8] = No AF/F, baseline NT-proBNP >median, OM n = 1489
# [9] = No AF/F, baseline NT-proBNP ≤median
# [10] = No AF/F, baseline NT-proBNP ≤median, OM n = 1476
# [11] = patients without AF/F, baseline NT-proBNP>median
# [12] = EF ≤30%, no AFF, no digoxin, OM + standard care (n = 2674)
# [13] = EF ≤30%, no AFF, no digoxin, OM vs Pbo
smiles,measurement,setting,value
COC(=O)N1CCN(Cc2cccc(NC(=O)Nc3ccc(C)nc3)c2F)CC1 [omecamtiv mecarbil],NT-proBNP at 24 wks,[1]; [3],2809 pg/mL
same,"1° Outcome (time to HF hospitalization or CV death), %",[1]; [4],(48) %
same,"1° Outcome (time to HF hospitalization or CV death), Rate",[1]; [4],36.52 per 100 person-years
same,All-cause Death (%),[1]; [4],(36) %
same,All-cause Death Rate,[1]; [4],21.87 per 100 person-years
same,"Hospitalization for HF, %",[1]; [4],(37) %
same,"Hospitalization for HF, Rate",[1]; [4],27.93 per 100 person-years
same,"1° Outcome (time to HF hospitalization or CV death), HR",[1]; [3],0.88
same,"All-cause death, HR",[1]; [3],0.97
same,"Hospitalization for HF, HR",[1]; [3],0.88
same,"NT-proBNP change from baseline to 24 weeks, Ratio",[1]; [3],0.84
same,NT-proBNP at 24 wks,[1]; [5],772 pg/mL
same,"1° Outcome (time to HF hospitalization or CV death), %",[1]; [6],(26) %
same,"1° Outcome (time to HF hospitalization or CV death), Rate",[1]; [6],15.00 per 100 person-years
same,All-cause Death (%),[1]; [6],(16) %
same,All-cause Death Rate,[1]; [6],8.11 per 100 person-years
same,"Hospitalization for HF, %",[1]; [6],(20) %
same,"Hospitalization for HF, Rate",[1]; [6],11.84 per 100 person-years
same,"1° Outcome (time to HF hospitalization or CV death), HR",[1]; [5],1.02
same,"All-cause death, HR",[1]; [5],1.10
same,"Hospitalization for HF, HR",[1]; [5],1.04
same,"NT-proBNP change from baseline to 24 weeks, Ratio",[1]; [5],0.95
same,NT-proBNP threshold at which the favorable effect emerged,"[1]; NT-proBNP as a continuous measure, patients without AF/F","around 2,000 pg/mL"
same,NT-proBNP at 24 wks,[1]; [7],2302 pg/mL
same,"1° Outcome (time to HF hospitalization or CV death), %",[1]; [8],(44) %
same,"1° Outcome (time to HF hospitalization or CV death), Rate",[1]; [8],31.30 per 100 person-years
same,All-cause Death (%),[1]; [8],(32) %
same,All-cause Death Rate,[1]; [8],18.67 per 100 person-years
same,"Hospitalization for HF, %",[1]; [8],(32) %
same,"Hospitalization for HF, Rate",[1]; [8],23.26 per 100 person-years
same,"1° Outcome (time to HF hospitalization or CV death), HR",[1]; [7],0.81
same,"All-cause death, HR",[1]; [7],0.86
same,"Hospitalization for HF, HR",[1]; [7],0.79
same,"NT-proBNP change from baseline to 24 weeks, Ratio",[1]; [7],0.83
same,NT-proBNP at 24 wks,[1]; [9],614 pg/mL
same,"1° Outcome (time to HF hospitalization or CV death), %",[1]; [10],(22) %
same,"1° Outcome (time to HF hospitalization or CV death), Rate",[1]; [10],12.42 per 100 person-years
same,All-cause Death (%),[1]; [10],(13) %
same,All-cause Death Rate,[1]; [10],6.74 per 100 person-years
same,"Hospitalization for HF, %",[1]; [10],(17) %
same,"Hospitalization for HF, Rate",[1]; [10],9.62 per 100 person-years
same,"1° Outcome (time to HF hospitalization or CV death), HR",[1]; [9],0.94
same,"All-cause death, HR",[1]; [9],0.96
same,"Hospitalization for HF, HR",[1]; [9],0.97
same,"NT-proBNP change from baseline to 24 weeks, Ratio",[1]; [9],0.95
same,Effect on NT-proBNP by baseline NT-proBNP,"[1]; baseline to 24 weeks, result in words",reduced NT-proBNP only in patients with a baseline value NT-proBNP greater than the median
same,Adverse events compared to placebo,[1]; in vivo,no strong or consistent evidence that any adverse event was more common
same,Effect on systolic blood pressure,[1]; in vivo,did not have a significant effect
same,Effect on troponin I,[1]; in vivo,"increased troponin I, significantly"
same,HR (heart rate) at 24 wks,[1]; in vivo,70 (11) bpm and 69 bpm and 70 (12) bpm and 70 bpm
same,"Major cardiac ischemic events, RR",[1]; in vivo,"1.16 (0.86, 1.56) and 1.10 (0.85, 1.43) and 1.08 (0.80, 1.47) and 0.99 (0.74, 1.33)"
same,"Major cardiac ischemic events, number of patients",[1]; in vivo,86 (5.8) and 114 (5.5) and 83 (5.6) and 85 (4.2)
same,"Major cardiac ischemic events, value in parentheses",[1]; in vivo,86 (5.8) and 114 (5.5) and 83 (5.6) and 85 (4.2)
same,Reduction of heart rate,[1]; in vivo,1-2 beats per minute
same,SBP at 24 wks,[1]; in vivo,120 mmHg and 116 mmHg
same,"Stroke, RR",[1]; in vivo,"0.83 (0.49, 1.39) and 0.68 (0.44, 1.03) and 0.73 (0.45, 1.17) and 0.69 (0.46, 1.03)"
same,"Stroke, number of patients",[1]; in vivo,25 (1.7) and 36 (1.7) and 29 (2.0) and 40 (2.0)
same,"Stroke, value in parentheses",[1]; in vivo,25 (1.7) and 36 (1.7) and 29 (2.0) and 40 (2.0)
same,"Torsade/QT prolongation, RR",[1]; in vivo,"0.84 (0.58, 1.23) and 0.88 (0.65, 1.19) and 1.01 (0.73, 1.39) and 0.94 (0.72, 1.23)"
same,"Troponin I change from baseline to 24 weeks, Ratio",[1]; in vivo,1.28 and 1.25 and 1.23
same,"Ventricular tachyarrhythmia leading to treatment, RR",[1]; in vivo,"0.67 (0.42, 1.07) and 0.86 (0.59, 1.25) and 1.15 (0.77, 1.72) and 1.02 (0.73, 1.42)"
same,"Ventricular tachyarrhythmia, RR",[1]; in vivo,"0.82 (0.62, 1.09) and 0.89 (0.71, 1.12) and 1.05 (0.82, 1.35) and 1.03 (0.83, 1.27)"
same,"Ventricular tachyarrhythmia, number of patients",[1]; in vivo,84 (6.7) and 130 (7.3) and 115 (8.6) and 160 (8.7)
same,"Ventricular tachyarrhythmia, value in parentheses",[1]; in vivo,84 (6.7) and 130 (7.3) and 115 (8.6) and 160 (8.7)
same,"Primary endpoint, hazard ratio","[1]; overall population, NT-proBNP less than or equal to the median",1.01
same,"Primary endpoint, hazard ratio","[1]; overall population, NT-proBNP>median",0.88
same,Primary outcome event rate compared with the placebo group,"[1]; patients with AF/F at baseline, result in words",higher event rate
same,Proportional reduction in NT-proBNP compared with placebo,[1]; patients with NT-proBNP greater than the median at baseline,approximately 17%
same,"Primary endpoint, hazard ratio","[1]; patients without AF/F, NT-proBNP greater than the median",0.81
same,"Primary endpoint, hazard ratio","[1]; patients without AF/F, NT-proBNP less than or equal to the median",0.94
same,Benefit on primary endpoint,"[1]; patients without AF/F, NT-proBNP≤median, result in words",no benefit
same,Relative risk reduction in cardiovascular mortality,[1]; [11],13%
same,Relative risk reduction in heart failure hospitalization,[1]; [11],21%
same,Relative risk reduction in the primary endpoint,[1]; [11],18%
same,Treatment efficacy / benefit by baseline NT-proBNP level,[1]; result in words,higher treatment efficacy; also recorded: larger in patients with higher baseline NT-proBNP levels
same,Binding to plasma proteins,plasma proteins,81.5%
same,Concentration dependence of protein binding,plasma proteins; result in words,independent of drug concentration up to 4000 ng/mL
same,Cumulative rate of HFEs at 36 months,[2]; [12],81.8/ /100 pts
same,Frequency of HFE (all events),[2]; [12],31.2/ /100 pt yrs
same,IV Diuretics /Inotropes Nasodilators,[2]; [12],35.7 /100 pt yrs
same,Mechanical circulatory support during HF hospitalizations,[2]; [12],2.2 /100 pt yrs
same,Mechanical fluid removal during HF hospitalizations,[2]; [12],0.8 /100 pt yrs
same,"Time to first HFE, rate",[2]; [12],18.9/ /100 pt yrs
same,Total days in hospital,[2]; [12],524.1 /100 pt yrs
same,"Cumulative rate of HFEs at 36 months, Rate Ratio",[2]; [13],Rate Ratio 0.799
same,Cumulative rate of HFEs: treatment effect over time,[2]; [13],increasing
same,"Frequency of HFE (all events), ARR",[2]; [13],ARR 6.7/100 pt yrs
same,"Frequency of HFE (all events), HR",[2]; [13],"HR 0.85,"
same,"Frequency of HFE (all events), NNT",[2]; [13],NNT 14.9
same,"Time to first HFE, ARR",[2]; [13],ARR 3.8/100 pt yrs
same,"Time to first HFE, NNT",[2]; [13],NNT 26.5
same,Clinical benefits and resource utilization,"[2]; EF≤30%, without AFF, without digoxin at baseline, result in words",significant clinical benefits and reductions in resource utilization
